pIC50: −log10 of the molar value. Activity calls are given as the source filed them. No cut-off for these calls is given here.
Tests used:
MUGMel2 [1] = experiment: Cytotoxicity against human MUGMel2 cells harboring NRAS pQ61K mutant assessed as reduction in cell viability after 24 hrs by EZ4U reagent based spectrophotometric method; type: functional; conditions: MUGMel2, 24 h
MUGMel2 [2] = experiment: Cytotoxicity against human MUGMel2 cells harboring NRAS pQ61K mutant assessed as reduction in cell viability after 48 hrs by EZ4U reagent based spectrophotometric method; type: functional; conditions: MUGMel2, 48 h
SBcl2 [3] = experiment: Cytotoxicity against human SBcl2 cells harboring NRAS Q61I mutant assessed as reduction in cell viability after 48 hrs by EZ4U reagent based spectrophotometric method; type: functional; conditions: SBcl2, 48 h
WM793 [4] = experiment: Cytotoxicity against human WM793 cells harboring BRAF V600E mutant assessed as reduction in cell viability after 72 hrs by EZ4U reagent based spectrophotometric method; type: functional; conditions: WM793, 72 h
MRC5 = experiment: Cytotoxicity against human MRC5 cells assessed as reduction in cell viability after 24 hrs by EZ4U reagent based spectrophotometric method; type: functional; conditions: MRC5, 24 h
MUGMel1 [5] = experiment: Induction of apoptosis in human MUGMel1 cells assessed as viable cells at IC50 concentration after 6 hrs by Annexin V/SYTOX Green based flow cytometric analysis (reference value: 96.01%); type: functional
MUGMel1 [6] = experiment: Induction of apoptosis in human MUGMel1 cells assessed as early apoptotic cells at IC50 concentration after 6 hrs by Annexin V/SYTOX Green based flow cytometric analysis (reference value: 2.55%); type: functional
MUGMel2 [7] = experiment: Induction of apoptosis in human MUGMel2 cells assessed as viable cells at IC50 concentration after 6 hrs by Annexin V/SYTOX Green based flow cytometric analysis (reference value: 91.12%); type: functional
SBcl2 [8] = experiment: Induction of apoptosis in human SBcl2 cells assessed as early apoptotic cells at IC50 concentration after 6 hrs by Annexin V/SYTOX Green based flow cytometric analysis (reference value: 4.26%); type: functional
WM164 [9] = experiment: Induction of apoptosis in human WM164 cells assessed as late apoptotic cells at IC50 concentration after 6 hrs by Annexin V/SYTOX Green based flow cytometric analysis (reference value: 1.41%); type: functional
WM164 [10] = experiment: Induction of apoptosis in human WM164 cells assessed as necrotic cells at IC50 concentration after 6 hrs by Annexin V/SYTOX Green based flow cytometric analysis (reference value: 0.81%); type: functional
WM793 [11] = experiment: Induction of apoptosis in human WM793 cells assessed as late apoptotic cells at IC50 concentration after 6 hrs by Annexin V/SYTOX Green based flow cytometric analysis (reference value: 0.71%); type: functional
MUGMel1 [12] = experiment: Induction of apoptosis in human MUGMel1 cells assessed as late apoptotic cells at IC50 concentration after 24 hrs by Annexin V/SYTOX Green based flow cytometric analysis (reference value: 1.18%); type: functional
WM164 [13] = experiment: Induction of apoptosis in human WM164 cells assessed as necrotic cells at IC50 concentration after 24 hrs by Annexin V/SYTOX Green based flow cytometric analysis (reference value: 0.85%); type: functional
B16-F0 = experiment: Cytotoxicity against mouse B16F0 cells assessed as reduction in cell viability after 24 hrs by MTT assay; type: functional, cell-based; conditions: B16F0, 24 h
MUGMel1 [14] = experiment: Induction of apoptosis in human MUGMel1 cells assessed as increase in caspase -3 activity at IC50 concentration after 24 hrs by Alexa Fluor 647 antibody based flow cytometric analysis; type: functional, cell-based
WM164 [15] = experiment: Induction of apoptosis in human WM164 cells assessed as increase in caspase -3 activity at IC50 concentration after 24 hrs by Alexa Fluor 647 antibody based flow cytometric analysis; type: functional, cell-based
MUGMel1 [16] = experiment: Induction of apoptosis in human MUGMel1 cells assessed as increase in caspase -3 activity at IC50 concentration after 24 hrs in presence of caspase -inhibitor by Alexa Fluor 647 antibody based flow cytometric analysis; type: functional, cell-based
MUGMel1 [17] = experiment: Induction of cell cycle arrest in human MUGMel1 cells assessed as increase in S phase at IC50 concentration after 24 to 48 hrs by propidium iodide staining based flow cytometric analysis; type: functional
MUGMel2 [18] = experiment: Induction of apoptosis in human MUGMel2 cells assessed as up regulation of NOXA protein expression at IC50 concentration after 24 hrs by Western blot analysis; type: functional, cell-based
SBcl2 [19] = experiment: Induction of apoptosis in human SBcl2 cells assessed as effect on BAX mRNA expression at IC50 concentration after 6 to 24 hrs by RT-qPCR analysis; type: functional, cell-based
MUGMel2 [20] = experiment: Induction of apoptosis in human MUGMel2 cells assessed as effect on BAX mRNA expression at IC50 concentration after 6 to 24 hrs by RT-qPCR analysis; type: functional, cell-based
MUGMel1 [21] = experiment: Induction of apoptosis in human MUGMel1 cells assessed as effect on BAX mRNA expression at IC50 concentration after 6 to 24 hrs by RT-qPCR analysis; type: functional, cell-based
MUGMel1 [22] = experiment: Induction of apoptosis in human MUGMel1 cells assessed as effect on BAD mRNA expression at IC50 concentration after 6 to 24 hrs by RT-qPCR analysis; type: functional, cell-based
WM793 [23] = experiment: Induction of apoptosis in human WM793 cells assessed as up regulation of NOXA at IC50 concentration after 6 to 24 hrs by RT-qPCR analysis; type: functional, cell-based
MUGMel2 [24] = experiment: Induction of apoptosis in human MUGMel2 cells assessed as up regulation of NOXA at IC50 concentration after 6 to 24 hrs by RT-qPCR analysis relative to control; type: functional
WM793 [25] = experiment: Induction of apoptosis in human WM793 cells assessed as effect on PUMA protein expression at IC50 concentration after 24 hrs by Western blot analysis; type: functional, cell-based
WM164 [26] = experiment: Induction of apoptosis in human WM164 cells assessed as effect on BAD protein expression at IC50 concentration after 24 hrs by Western blot analysis; type: functional, cell-based
MUGMel2 [27] = experiment: Induction of apoptosis in human MUGMel2 cells assessed as effect on PUMA protein expression at IC50 concentration after 24 hrs by Western blot analysis; type: functional, cell-based
MUGMel2 [28] = experiment: Induction of apoptosis in human MUGMel2 cells assessed as effect on BAX protein expression at IC50 concentration after 24 hrs by Western blot analysis; type: functional, cell-based
MUGMel1 [29] = experiment: Induction of apoptosis in human MUGMel1 cells assessed as effect on BAD protein expression at IC50 concentration after 24 hrs by Western blot analysis; type: functional, cell-based
[30] = Toxicity in NU(NCr)-Foxn1 mouse xenografted with SBcl2 assessed as weight loss at 2 ug/g administered for three consecutive days with 1 day interval for four cycle; conditions: in vivo
[31] = Toxicity in NU(NCr)-Foxn1 mouse xenografted with WM164 assessed as weight loss at 1 to 4 ug/g administered for three consecutive days with 1 day interval for four cycle; conditions: in vivo
SBcl2 [32] = experiment: Antitumour activity against human SBcl2 cells xenografted in NU(NCr)-Foxn1 mouse assessed as decrease in tumour size at 2 ug/g administered for three consecutive days with 1 day interval for four cycle; type: functional, cell-based
WM164 [33] = experiment: Antitumour activity against human WM164 cells xenografted in NU(NCr)-Foxn1 mouse assessed as decrease in tumour size at 2 ug/g administered for three consecutive days with 1 day interval for four cycle; type: functional, cell-based

CC(C)=CC[C@@H](OC(=O)C=C(C)C)C1=CC(=O)c2c(O)ccc(O)c2C1=O [DIMETHYLACRYLSHIKONIN]
pIC50 (MUGMel2 [1]): 5.29 | pIC50 (MUGMel2 [2]): 5.64 | pIC50 (SBcl2 [3]): 5.96 | pIC50 (WM793 [4]): 6.15 | pIC50 (MRC5): 5.02 | Activity (MUGMel1 [5]): 94.02% | Activity (MUGMel1 [6]): 3.51% | Activity (MUGMel2 [7]): 75.52% | Activity (SBcl2 [8]): 8.44% | Activity (WM164 [9]): 8.65% | Activity (WM164 [10]): 0.24% | Activity (WM793 [11]): 5.72% | Activity (MUGMel1 [12]): 10.11% | Activity (WM164 [13]): 0.52% | pIC50 (B16-F0): 5.29 to 5.92 | Activity (MUGMel1 [14]): Active | Activity (WM164 [15]): Active | Activity (MUGMel1 [16]): inactive | Activity (MUGMel1 [17]): Active | Activity (MUGMel2 [18]): Active | Activity (SBcl2 [19]): inactive | Activity (MUGMel2 [20]): inactive | Activity (MUGMel1 [21]): inactive | Activity (MUGMel1 [22]): inactive | Activity (WM793 [23]): inactive | fold change (FC) (MUGMel2 [24]): 6 | Activity (WM793 [25]): inactive | Activity (WM164 [26]): inactive | Activity (MUGMel2 [27]): inactive | Activity (MUGMel2 [28]): inactive | Activity (MUGMel1 [29]): inactive | Activity [30]: Non-Toxic | Activity [31]: Non-Toxic | Activity (SBcl2 [32]): inactive | Activity (WM164 [33]): inactive

From ChEMBL document CHEMBL4602659, “β,β-Dimethylacrylshikonin Induces Apoptosis in Melanoma Cell Lines by NOXA Upregulation” (J Nat Prod, 2020)
